Values joined by “and” are separate entries in the source; they are usually repeats but may differ in a detail not shown here. Equal values may be shown once.
Tested on: KRAS patient-derived spheroids with HUVEC/MSC, viability
Assay: Anticancer human tumor 519858-162-T-J1-PDC patient-derived colon adenocarcinoma cell line growth inhibition [KRAS2]
Details: for viability, T/C: stronger effect = lower value; active = viability on the fitted dose curve at most 10% of control; inactive = the rest
Summary of the method: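 KRAS-mutant tumor cells were grown as spheroids with HUVEC endothelial cells and human MSCs as stroma. Targeted agents were tested alone and with KRAS pathway inhibitors. Doses started at or near clinical Cmax, or 10 microM, descending half-log.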

[1] = curve of first compound, second compound 0.1 µM
[2] = curve of first compound, second compound 0.316 µM
[3] = curve of first compound, second compound 1 µM
[4] = curve of first compound, second compound 3.16 µM
[5] = curve of first compound, second compound 10 µM
[6] = second compound 0.1 µM, first compound 0.01 µM
[7] = second compound 0.1 µM, first compound 0.0316 µM
[8] = second compound 0.1 µM, first compound 0.1 µM
[9] = second compound 0.1 µM, first compound 0.316 µM
[10] = second compound 0.1 µM, first compound 1 µM
[11] = second compound 0.1 µM, first compound 3.16 µM
[12] = second compound 0.316 µM, first compound 0.01 µM
[13] = second compound 0.316 µM, first compound 0.0316 µM
[14] = second compound 0.316 µM, first compound 0.1 µM
[15] = second compound 0.316 µM, first compound 0.316 µM
[16] = second compound 0.316 µM, first compound 1 µM
[17] = second compound 0.316 µM, first compound 3.16 µM
[18] = second compound 1 µM, first compound 0.01 µM
[19] = second compound 1 µM, first compound 0.0316 µM
[20] = second compound 1 µM, first compound 0.1 µM
[21] = second compound 1 µM, first compound 0.316 µM
[22] = second compound 1 µM, first compound 1 µM
[23] = second compound 1 µM, first compound 3.16 µM
[24] = second compound 3.16 µM, first compound 0.01 µM
[25] = second compound 3.16 µM, first compound 0.0316 µM
[26] = second compound 3.16 µM, first compound 0.1 µM
[27] = second compound 3.16 µM, first compound 0.316 µM
[28] = second compound 3.16 µM, first compound 1 µM
[29] = second compound 3.16 µM, first compound 3.16 µM
[30] = second compound 10 µM, first compound 0.01 µM
[31] = second compound 10 µM, first compound 0.0316 µM
[32] = second compound 10 µM, first compound 0.1 µM
[33] = second compound 10 µM, first compound 0.316 µM
[34] = second compound 10 µM, first compound 1 µM
[35] = second compound 10 µM, first compound 3.16 µM
[36] = second compound 0.1 µM, first compound 0.000316 µM
[37] = second compound 0.1 µM, first compound 0.001 µM
[38] = second compound 0.1 µM, first compound 0.00316 µM
[39] = second compound 0.316 µM, first compound 0.000316 µM
[40] = second compound 0.316 µM, first compound 0.001 µM
[41] = second compound 0.316 µM, first compound 0.00316 µM
[42] = second compound 1 µM, first compound 0.000316 µM
[43] = second compound 1 µM, first compound 0.001 µM
[44] = second compound 1 µM, first compound 0.00316 µM
[45] = second compound 3.16 µM, first compound 0.000316 µM
[46] = second compound 3.16 µM, first compound 0.001 µM
[47] = second compound 3.16 µM, first compound 0.00316 µM
[48] = second compound 10 µM, first compound 0.00316 µM
[49] = second compound 0.1 µM, first compound 10 µM
[50] = second compound 0.316 µM, first compound 10 µM
[51] = second compound 1 µM, first compound 10 µM
[52] = second compound 3.16 µM, first compound 10 µM
[53] = second compound 10 µM, first compound 10 µM
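Also: compound exposure lasted seven days before readout.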
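For viability, T/C in this document: 100% = DMSO vehicle control viability.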

CC1COCCN1c1cc(-c2ccnn2C)c2ccnc(-c3ccn[nH]3)c2n1 (stereo not drawn) + CC1OCC2(CCN(c3cnc(Sc4ccnc(N)c4Cl)c(N)n3)CC2)C1N
2480 nM: IC50 [1]
> 3160 nM: IC50 [4] | IC50 [5]
2280 nM: IC50 [2]
inactive: viability, T/C [6] 97.8% | viability, T/C [7] 89.2% | viability, T/C [8] 72.5% | viability, T/C [9] 88.4% | viability, T/C [10] 90.1% | viability, T/C [11] 40% | viability, T/C [12] 87% | viability, T/C [13] 75.6% | viability, T/C [14] 87.3% | viability, T/C [15] 80.4% | viability, T/C [16] 77.7% | viability, T/C [17] 39.1% | viability, T/C [18] 95.4% | viability, T/C [19] 75.3% | viability, T/C [20] 82.2% | viability, T/C [21] 75.8% | viability, T/C [22] 67.3% | viability, T/C [23] 41.1% | viability, T/C [24] 83.4% | viability, T/C [25] 83.9% | viability, T/C [26] 65.8% | viability, T/C [27] 70.4% | viability, T/C [28] 60.6% | viability, T/C [29] 53.9% | viability, T/C [30] 81.7% | viability, T/C [31] 74.2% | viability, T/C [32] 61.6% | viability, T/C [33] 47.7% | viability, T/C [34] 51% | viability, T/C [35] 53.3%
2100 nM: IC50 [3]

C=CC(=O)N1CCN(c2nc(OCC3CCCN3C)nc3c2CCN(c2cccc4cccc(C)c24)C3)CC1CC#N (stereo not drawn)
> 3160 nM and 2200 nM: IC50 (compound alone, run of 07/26/2021)
> 3160 nM: IC50 (compound alone, run of 07/12/2021) | IC50 (compound alone, run of 07/19/2021)

CC(C)n1nc(-c2ccc3oc(N)nc3c2)c2c(N)ncnc21 + C=CC(=O)N1CCN(c2nc(OCC3CCCN3C)nc3c2CCN(c2cccc4cccc(C)c24)C3)CC1CC#N
55.7 nM: IC50 [4]
inactive: viability, T/C (second compound 0.0316 µM, first compound 0.000316 µM) 97.9% | viability, T/C (second compound 0.0316 µM, first compound 0.001 µM) 82% | viability, T/C (second compound 0.0316 µM, first compound 0.00316 µM) 81.8% | viability, T/C (second compound 0.0316 µM, first compound 0.01 µM) 63.5% | viability, T/C (second compound 0.0316 µM, first compound 0.0316 µM) 61.8% | viability, T/C (second compound 0.0316 µM, first compound 0.1 µM) 57.7% | viability, T/C [36] 103% | viability, T/C [37] 104% | viability, T/C [38] 74.3% | viability, T/C [6] 70.2% | viability, T/C [7] 50.9% | viability, T/C [8] 39.2% | viability, T/C [39] 74.6% | viability, T/C [40] 83.8% | viability, T/C [41] 78.3% | viability, T/C [12] 66.8% | viability, T/C [13] 64.4% | viability, T/C [14] 46.7% | viability, T/C [42] 81% | viability, T/C [43] 82.7% | viability, T/C [44] 78.7% | viability, T/C [18] 68.2% | viability, T/C [19] 84.6% | viability, T/C [20] 66.2% | viability, T/C [45] 80.6% | viability, T/C [46] 76.4% | viability, T/C [47] 76% | viability, T/C [24] 67% | viability, T/C [25] 63% | viability, T/C [26] 38.6%
> 100 nM: IC50 (curve of first compound, second compound 0.0316 µM) | IC50 [3]
79.8 nM: IC50 [2]
35 nM: IC50 [1]

CN(C)C/C=C/C(=O)Nc1cc2c(Nc3ccc(F)c(Cl)c3)ncnc2cc1O[C@H]1CCOC1 + CC1OCC2(CCN(c3cnc(Sc4ccnc(N)c4Cl)c(N)n3)CC2)C1N
inactive: viability, T/C [36] 76.6% | viability, T/C [37] 77.2% | viability, T/C [38] 68% | viability, T/C [6] 93.6% | viability, T/C [7] 70.3% | viability, T/C [8] 64.3% | viability, T/C [39] 78.1% | viability, T/C [40] 75% | viability, T/C [41] 85.8% | viability, T/C [12] 53.3% | viability, T/C [13] 55.1% | viability, T/C [14] 40.4% | viability, T/C [42] 74.4% | viability, T/C [43] 74.1% | viability, T/C [44] 78.8% | viability, T/C [18] 71.2% | viability, T/C [19] 90.8% | viability, T/C [20] 67.4% | viability, T/C [45] 53.6% | viability, T/C [46] 55.6% | viability, T/C [47] 38.9% | viability, T/C [24] 59.3% | viability, T/C [25] 39.4% | viability, T/C [26] 36.8% | viability, T/C (second compound 10 µM, first compound 0.000316 µM) 80% | viability, T/C (second compound 10 µM, first compound 0.001 µM) 81.7% | viability, T/C [48] 71.3% | viability, T/C [30] 72.9% | viability, T/C [31] 53.3% | viability, T/C [32] 46.4%
19.7 nM: IC50 [2]
4.46 nM: IC50 [4]
58.2 nM: IC50 [5]
> 100 nM: IC50 [1] | IC50 [3]

CCN1CCN(Cc2ccc(Nc3ncc(F)c(-c4cc(F)c5nc(C)n(C(C)C)c5c4)n3)nc2)CC1 + COc1cc2nc(C)nc(NC(C)c3cc(N)cc(C(F)(F)F)c3)c2cc1OC1CCOC1
44.6 nM: IC50 [5]
526 nM: IC50 [1]
inactive: viability, T/C [38] 76.9% | viability, T/C [6] 78.5% | viability, T/C [7] 77.2% | viability, T/C [8] 74.5% | viability, T/C [9] 62.1% | viability, T/C [10] 34.7% | viability, T/C [41] 83.8% | viability, T/C [12] 56% | viability, T/C [13] 72.3% | viability, T/C [14] 98.2% | viability, T/C [15] 54.8% | viability, T/C [16] 29% | viability, T/C [44] 51.5% | viability, T/C [18] 80.2% | viability, T/C [19] 77.6% | viability, T/C [20] 61.8% | viability, T/C [21] 55.1% | viability, T/C [22] 30.1% | viability, T/C [47] 69.3% | viability, T/C [24] 51% | viability, T/C [25] 48.9% | viability, T/C [26] 67.2% | viability, T/C [27] 73.8% | viability, T/C [28] 27.4% | viability, T/C [48] 84% | viability, T/C [30] 58% | viability, T/C [31] 64.8% | viability, T/C [32] 38.3% | viability, T/C [33] 20.2% | viability, T/C [34] 19.4%
471 nM: IC50 [4]
391 nM: IC50 [2] | IC50 [3]

CC1(C)CCC(CN2CCN(c3ccc(C(=O)NS(=O)(=O)c4ccc(NCC5CCOCC5)c([N+](=O)[O-])c4)c(Oc4cnc5[nH]ccc5c4)c3)CC2)=C(c2ccc(Cl)cc2)C1 + C=CC(=O)N1CCN(c2nc(=O)n(-c3c(C)ccnc3C(C)C)c3nc(-c4c(O)cccc4F)c(F)cc23)C(C)C1
inactive: viability, T/C [7] 83.4% | viability, T/C [8] 102% | viability, T/C [9] 88% | viability, T/C [10] 81.2% | viability, T/C [11] 91.6% | viability, T/C [49] 39.9% | viability, T/C [13] 93.9% | viability, T/C [14] 89.1% | viability, T/C [15] 68.6% | viability, T/C [16] 79.4% | viability, T/C [17] 92.2% | viability, T/C [50] 61.5% | viability, T/C [19] 90.9% | viability, T/C [20] 73.7% | viability, T/C [21] 94.7% | viability, T/C [22] 96.6% | viability, T/C [23] 84.6% | viability, T/C [51] 65.6% | viability, T/C [25] 63.3% | viability, T/C [26] 96.4% | viability, T/C [27] 81.6% | viability, T/C [28] 64.1% | viability, T/C [29] 84.4% | viability, T/C [52] 61.3% | viability, T/C [31] 77.8% | viability, T/C [32] 84.3% | viability, T/C [33] 58.2% | viability, T/C [34] 81.9% | viability, T/C [35] 56.3% | viability, T/C [53] 70.6%
> 10000 nM: IC50 [2] | IC50 [3] | IC50 [4] | IC50 [5]
7910 nM: IC50 [1]

COc1cc(Nc2ncc3c(n2)-c2ccc(Cl)cc2C(c2c(F)cccc2OC)=NC3)ccc1C(=O)O + CC1OCC2(CCN(c3cnc(Sc4ccnc(N)c4Cl)c(N)n3)CC2)C1N
inactive: viability, T/C [7] 84.6% | viability, T/C [8] 67.9% | viability, T/C [9] 77.1% | viability, T/C [10] 63.4% | viability, T/C [11] 62% | viability, T/C [49] 73.3% | viability, T/C [13] 69.3% | viability, T/C [14] 62.8% | viability, T/C [15] 88.1% | viability, T/C [16] 75.7% | viability, T/C [17] 63% | viability, T/C [50] 89% | viability, T/C [19] 60.4% | viability, T/C [20] 58.7% | viability, T/C [21] 57.9% | viability, T/C [22] 49.7% | viability, T/C [23] 66.5% | viability, T/C [51] 111% | viability, T/C [25] 55.4% | viability, T/C [26] 58% | viability, T/C [27] 45.7% | viability, T/C [28] 42.9% | viability, T/C [29] 71.2% | viability, T/C [52] 71.1% | viability, T/C [31] 73% | viability, T/C [32] 48.9% | viability, T/C [33] 49.5% | viability, T/C [34] 53.4% | viability, T/C [35] 74.9% | viability, T/C [53] 78%
31.6 nM: IC50 [4]
> 10000 nM: IC50 [1] | IC50 [2] | IC50 [3] | IC50 [5]

Source: PubChem BioAssay AID1963872 (Molecular Pharmacology Branch, DTP, NCI, 2024)
